Measured values reported in patent US9808003B2, “Herbicidally active 2-(substituted-phenyl)-cyclopentane-1,3-dione compounds and derivatives thereof” (Syngenta Limited, priority 2013, dated 2017).

Experiments:
Assay type in all cases: in vivo
[1] = test system: Alopecurus myosuroides (ALOMY); assay: Test 1A glasshouse assay, post-emergence herbicidal activity; details: Alopecurus myosuroides, 312 h, application rate 250 g/ha, 13 days after application, visual (100%=total damage; 0%=no damage), read-out: Post-emergence Herbicidal Activity (% Phytotoxicity) ALOMY
How it was run: (§1)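 Herbicidal effect is scored by eye as % phytotoxicity (0–100%) 13 days after treatment of 8-day-old glasshouse-grown plants. The spray solution contains the technical active ingredient in acetone/water with 0.5% Tween 20.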

Avena fatua (AVEFA) = assay: as above; details: Avena fatua, 312 h, application rate 250 g/ha, 13 days after application, visual (100%=total damage; 0%=no damage), read-out: Post-emergence Herbicidal Activity (% Phytotoxicity) AVEFA
How it was run: as §1

[2] = test system: Echinochloa crus-galli (ECHCG); assay: as above; details: Echinochloa crus-galli, 312 h, application rate 250 g/ha, 13 days after application, visual (100%=total damage; 0%=no damage), read-out: Post-emergence Herbicidal Activity (% Phytotoxicity) ECHCG
How it was run: as §1

Lolium perenne (LOLPE) [3] = assay: as above; details: Lolium perenne, 312 h, application rate 250 g/ha, 13 days after application, visual (100%=total damage; 0%=no damage), read-out: Post-emergence Herbicidal Activity (% Phytotoxicity) LOLPE
How it was run: as §1

[4] = test system: Echinochloa crus-galli (ECHCG); assay: Test 1A glasshouse assay, pre-emergence herbicidal activity; details: 312 h, 250 g/ha, 13 days after application, read-out: Pre-emergence herbicidal activity (% phytotoxicity) ECHCG
Lolium perenne (LOLPE) [5] = assay: as above; details: 312 h, 250 g/ha, 13 days after application, read-out: Pre-emergence herbicidal activity (% phytotoxicity) LOLPE
Spring Wheat “Teal” = assay: Test 1B glasshouse assay, post-emergence herbicidal activity against cereal crops; details: 14 DAA
How it was run: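 Visual percentage damage (100% = total, 0% = none) read 14 days after application, averaged over two replicates. Plants grown 14 days at 22/16 °C day/night before post-emergence spraying of unformulated compound (IF50/acetone, 0.5% v/v Adigor). Rates usually 60–120 g/ha; cloquintocet-mexyl 50 g/ha co-applied where stated.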

Row | SMILES | pest or weed control at 250 g/ha [1] | pest or weed control at 250 g/ha (Avena fatua (AVEFA)) | pest or weed control at 250 g/ha [2] | pest or weed control at 250 g/ha (Lolium perenne (LOLPE) [3]) | inhibition at 250 g/ha [4] | inhibition at 250 g/ha (Lolium perenne (LOLPE) [5]) | Post-emergence herbicidal activity against cereal crops, percentage phytotoxicity, Spring Wheat “Teal” (Spring Wheat “Teal”; 30 g/ha herbicide, 50 g/ha cloquintocet-mexyl) | Post-emergence herbicidal activity against cereal crops, percentage phytotoxicity, Spring Wheat “Teal” (Spring Wheat “Teal”; 45 g/ha herbicide, 50 g/ha cloquintocet-mexyl) | Post-emergence herbicidal activity against cereal crops, percentage phytotoxicity, Spring Wheat “Teal” (Spring Wheat “Teal”; 60 g/ha herbicide, 0 g/ha cloquintocet-mexyl) | Post-emergence herbicidal activity against cereal crops, percentage phytotoxicity, Spring Wheat “Teal” (Spring Wheat “Teal”; 60 g/ha herbicide, 50 g/ha cloquintocet-mexyl)
1 | Cc1cc(C)c(C2C(=O)CC(CCNC(=O)c3cccc(F)n3)C2=O)c(C)c1 (racemic) [Compound A89] | 100% | 100% | 100% | 100% | 100% | 100% | 13% | 20% | 75% | 50%
2 | Cc1cc(C)c(C2C(=O)CC(CCNC(=O)c3ccc(Br)cn3)C2=O)c(C)c1 (racemic) [Compound A120, 5-bromo-N-{2-[2,4-dioxo-3-(2,4,6-trimethylphenyl)cyclopentyl]ethyl}pyridine-2-carboxamide] | 100% | 90% | 100% | 100% | 100% | 100% |  |  |  | 
